Assay results: PubChem BioAssay (NCI)
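Results reflect a 48-hour exposure of cells in 96-well plates to compound at five concentrations. GI50 marks 50% less growth. TGI is the concentration that stops growth completely.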

Experiments:
Assay in all cases: growth of human tumour cells (NCI), 48 h
CCRF-CEM leukemia = tested on: CCRF-CEM leukemia
UACC-62 melanoma = tested on: UACC-62 melanoma
OVCAR-4 ovarian = tested on: OVCAR-4 ovarian
786-0 renal = tested on: 786-0 renal

SMILES | TGI (CCRF-CEM leukemia) [µM] | TGI (UACC-62 melanoma) [µM] | TGI (OVCAR-4 ovarian) [µM] | GI50 (CCRF-CEM leukemia) [µM] | GI50 (OVCAR-4 ovarian) [µM] | GI50 (UACC-62 melanoma) [µM] | TGI (786-0 renal) [µM]
O=C1c2ccccc2C(=O)N1CC(O)COc1cccc2ccccc12 (configuration not stated) | > 100 | > 100 | – | – | – | – | –
NC(=S)N/N=C\c1nccc2ccccc12 | – | 0.538 | 1.2 | – | – | – | –
Cc1ccc(S(=O)(=O)N2CCCSCC2)cc1 | > 100 | – | > 100 | – | – | – | –
CCCC(=O)Nc1cc(/C=C/C(=O)N2CC(CCl)c3c2cc(O)c2[nH]cc(C)c32)n(C)c1 (configuration not stated) | 0.000155 | < 2.5e-05 | 0.038 | – | – | – | –
Oc1ccc(-c2nc3ccc(Cl)cc3s2)cc1 | 24.4 | 31.2 | – | – | – | – | –
CC1(C)OCC=CCO1 | > 100 | > 100 | > 100 | – | – | – | –
COc1cc2c(cc1OCCCC(=O)Nc1ccc3ccc4cccc5ccc1c3c45)N=C[C@@H]1CCCN1C2=O | 0.936 | 0.0263 | 10.1 | 0.0335 | < 0.01 | < 0.01 | –
CC(=O)c1cc2ccccc2oc1=O | > 100 | – | > 100 | – | – | – | > 100
COc1cc(C(O)(CC#N)c2cc3c(cc2Br)OCO3)cc(OC)c1OC (configuration not stated) | > 100 | > 100 | > 100 | – | – | – | –
O=C1C(Cl)=C(Nc2ccc(S(=O)(=O)Nc3ccccn3)cc2)C(=O)c2ccccc21 | > 25.5 | 11.8 | > 53.6 | – | – | – | 26.1
CC1=C(C)Cc2c(O)ccc(O)c2C1 | 16.2 | 30.1 | – | – | – | – | –
